“Also recorded” adds a separate entry of the source. Where two headings read alike, the source gives them in different places. Where only a bound is given, the exact number is not on record here.

The target in data set [1] is recombinant DENV2 NS2BNS3 protease (Dengue virus type 2, UniProt P29990). The experiment in a line: DENV2 NS2BNS3 protease inhibition assay (fluorogenic Bz-Nle-Lys-Arg-Arg-AMC substrate). In kind it is biochemical. The settings on record: for inhibition at 50 µM: single dose 50 μM BIT, 100 nM protease. As for the experimental part:
The DENV NS2BNS3 activity inhibition assays were conducted in a 96-well plate containing 100 μL total reaction mixture. […] The reaction, in triplicates, was initiated by the addition of 100 nM DENV2 NS2B-NS3, and the release of fluorogenic AMC was measured at 60 s intervals using a spectrofluorometer for a maximum reaction time of 30 min. A solvent (DMSO) control was run for each assay plate by measuring the activity of DENV NS2BNS3 in the absence of BITs (DMSO control). The effect of background fluorescence was measured by preparing a calibration curve, which in turn was obtained by spiking known concentrations of free AMC in the same volume of the reaction mixtures containing the buffer, enzyme and compounds, and comparing the slope of this curve with that obtained using free AMC concentrations in reaction mixtures containing the buffer, enzyme, no compound and no substrate. The percentage of inhibition was calculated using the measurement of the initial rates of reaction in the presence (vexp) , or absence (vpro) of BIT according to the following formula: Inhibition (%)= 100−(vexp/vpro×100).
For the dose–response experiments, the assays were conducted as described above in the presence of threefold serial dilutions of BITs, ranging from 0.076–500 μM concentrations in DMSO. The final concentration of DMSO in each reaction mixture was less than 5%. IC50 values were obtained by plotting the residual activity of the DENV protease vs. log of the concentration of BITs by using GraphPad Prism v.7 software (San Diego, CA USA). For the positive control, aprotinin was used in a 5 μM concentration. All experiments were conducted in triplicates.
The synthesised BITs were tested for their inhibitory activity against the DENV2 NS2B/NS3 protease assay using the previously reported 96-well plate method. […] A reduction in the cleavage of the […] (AMC) measured in terms of the reduction of fluorescence was deemed to show inhibition of the protease and is reported as a percentage inhibition compared with the solvents’ control reaction. […] Aprotinine was used as the positive control, as described previously.
A threefold serial dilution of the selected BITs, ranging from 150 μM to about 200 nM, were screened in triplicate experiments, as described above. The kinetic data were obtained and the protease’s residual activities in the presence of the tested BITs were inserted into the dose–response model rooted in the GraphPad Prism software (version 7.0).
Figure 3 Inhibition and dose–response of DENV NS2BNS3 protease against the BITs. (A) A concentration of 50 μM BITs was incubated in the presence of 100 nM recombinant DENV2 NS2BNS3 protease and 5 µM tetrapeptide-AMC substrate in a Tris buffer at pH 9.5. The time-dependent release of fluorescent AMC tag was measured for 30 min and compared with the solvent control (−). […] Aprotinine (5 µM) was used as a positive control. Each bar represents a mean value of three replicates. […] The dashed horizontal line indicates the 50% activity level.

The subject of data set [2] is DENV2. Kind of data set: Viral infectivity by immunofluorescence staining of Vero cells infected with supernatants. The format is cell-based, DENV2 in Vero cells. The procedure:
The inhibition of viral replication was analysed using immunofluorescence staining. Vero cells were preincubated with selected BITs at 30 μM. The cells were subsequently infected with DENV-2 (multiplicity of infection (MOI) of 0.5). Cellular supernatants were collected after 2 days, centrifuged at 2000 rpm for 5 min to remove the detached cells, and titrated on Vero cells. These cells were fixed with 4% paraformaldehyde 3 days after infection. We performed immunofluorescence staining to visualise the infected cells with monoclonal anti-DENV-2 E antibodies. Bound antibodies were detected with a Cy3-conjugated donkey anti-mouse antibody (Dianova, Hamburg, Germany) (1:500). Stained infected cells were counted using a fluorescence microscope, and the viral titres were calculated. The experiment was performed in triplicates. The statistical significance of the reduction of infected cells was calculated using Student’s t-test by comparing numbers of infected cells incubated with a compound with the DMSO control.
To further analyse whether the compounds 5m and 5n suppressed the viral gene infectivity, Vero cells were pretreated with the compounds and subsequently infected with DENV2 for two days. Cellular supernatants were uses to infect the Vero cells. After two additional days, the infected cells were visualised using immunofluorescence with anti-DENV antibodies. The stained cells were counted (Figure 5).
(§1) (A) Vero cells were infected with DENV2 and incubated in the presence of the compounds. After incubation, viral RNA was isolated and quantified using RT-qPCR. (B) Viral infectivity of the compounds 5m and 5n was determined using immunofluorescence (IF) staining.

For data set [3], the system named is DENV2. The experiment in a line: DENV replication assay, viral RNA in supernatant by RT-qPCR. In kind it is cell-based, DENV2 in Vero cells. To be noted: 30 μM, Vero cells pre-incubated 1 h, supernatant after two days. As for the experimental part:
Based on the manufacturer’s manual, viral RNA was isolated from 200 µL cell culture supernatants using the Roche HP Viral Nucleic Acid Kit (Roche, Mannheim, Germany). Relative viral genome copy numbers were determined using 5 µL of the eluted RNA and RT-qPCR using the LightMix® Modular Dengue kit (TIB MOLBIOL, Germany) in combination with the LightCycler RNA Process Control Kit (Roche, Mannheim, Germany). All reactions were performed in triplicates on Roche LightCycler96 or Roche LightCycler480 II qPCR machines (Roche, Mannheim, Germany). The relative RNA concentration was determined using an RNA standard curve and the respective cycler software. The quality of the RT-qPCRs was ensured by following the Minimum Information for Publication of Quantitative […] Experiments guidelines, i.e., the recursion coefficient of the relative standard curve (r^2) was >0.95, and the triplicate assays with a standard deviation of >0.5 were excluded from the analyses. The resulting genome copy numbers were expressed as genome copies per millilitre of the cell culture supernatants. The statistical significance of the reduction in viral titres was calculated using Student’s t-test by comparing the viral load of a single compound with the DMSO control.
The BITs were tested for cytotoxicity in the Vero cells before their evaluation in cell culture assays (Figure S1). […] The BITs showing weaker DENV2 NS2BNS3 protease activity in the biochemical assay were excluded in the in vitro evaluations. […] All infections were performed in triplicate. After two days, the cellular supernatants were collected and the viral RNAs were isolated and quantified using real-time quantitative polymerase chain reaction (RT-qPCR).
as §1

[4] abbreviates: Vero cells pretreated, DENV2, immunofluorescence.

Sequence of recombinant DENV2 NS2BNS3 protease (P29990 1398-1437): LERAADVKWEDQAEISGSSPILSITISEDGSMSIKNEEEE
Sequence of recombinant DENV2 NS2BNS3 protease (P29990 1476-1653): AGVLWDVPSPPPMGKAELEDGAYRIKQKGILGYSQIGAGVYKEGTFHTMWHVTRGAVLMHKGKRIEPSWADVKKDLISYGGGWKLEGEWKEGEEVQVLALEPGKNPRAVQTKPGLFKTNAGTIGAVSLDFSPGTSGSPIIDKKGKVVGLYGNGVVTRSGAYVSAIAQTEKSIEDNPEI

A word on the melting point: it is the temperature of the solid-liquid transition. Consider `O=c1c2ccccc2sn1-c1ccc([N+](=O)[O-])cc1` [Compound 5i, 2-(4-Nitrophenyl)benzo[d]isothiazol-3(2H)-one], for which the melting point was in the range of 126 to 129 °C.

`CCCCc1ccc(-n2sc3ccccc3c2=O)cc1` [Compound 5g, 2-(4-Butylphenyl)benzo[d]isothiazol-3(2H)-one] came in with a melting point of 168 to 172 °C.

For orientation: IC50 means the midpoint of a concentration-inhibition curve. As usually defined, the inhibition is the share of the control response that was lost under treatment. The compound `O=c1c2ccccc2sn1-c1ccc(Br)cc1` [Compound 5k, 2-(4-Bromophenyl)benzo[d]isothiazol-3(2H)] showed a melting point of 138 to 140 °C. Besides, in data set [1], the IC50 is 8.24 ± 1.16 µM and the inhibition at 50 µM amounted to 80%.

In the case of `O=c1c2ccccc2sn1-c1ccccc1Cl` [Compound 5m, 2-(2-Chlorophenyl)benzo[d]isothiazol-3(2H)-one], the “reduction of viral infectivity” value was 1 log value in the data set on DENV2 [2] and 1.4 orders of magnitude in the data set on DENV2 [2] (setting [4]). Also, the “reduction of viral infectivity (in words)” value (“reduction … (in words)” for short) in the data set with DENV2 [2] (setting [4]) is “inhibited DENV replication and viral infectivity”; in the data set on DENV2 [2] (Vero cells pretreated, DENV2, immunofluorescence, listed as 2-(2-chlorophenyl)benzo[d]isothiazol-3(2H)-one) it was “could suppress DENV replication and virus infectivity”. The IC50 in data set [1] turned out to be 2.01 ± 0.98 µM. Moreover, the inhibition at 50 µM in data set [1] was greater than 90%. Moreover, the “suppression of DENV replication (viral RNA, RT-qPCR)” value (“suppression of DENV replication” for short) in the data set on DENV2 [3] is reported as “able to suppress DENV replication at a significant level; also recorded: inhibited DENV replication”; with DENV2 [3] (listed as 2-(2-chlorophenyl)benzo[d]isothiazol-3(2H)-one), “could suppress DENV replication”.

In the case of `O=c1c2ccccc2sn1-c1c(Cl)cccc1Cl` [Compound 5n, 2-(2,6-Dichlorophenyl)benzo[d]isothiazol-3(2H)-one], the melting point fell in the range of 188 to 190 °C. In addition, the “reduction … (in words)” value with DENV2 [2] (setting [4]) is “about sixfold”. The “reduction … (in words)” value in the data set on DENV2 [2] (Vero cells pretreated, DENV2, immunofluorescence, listed as 2-(2,6-dichlorophenyl)benzo[d]isothiazol-3(2H)-one) was “could suppress DENV replication and virus infectivity”. Besides, in data set [1], the IC50 is 5.28 ± 1.89 µM and the inhibition at 50 µM is greater than 90%. In addition, in the data set on DENV2 [3], the “suppression of DENV replication” value is listed as “able to suppress DENV replication at a significant level”. For the same compound, in the data set on DENV2 [3] (listed as 2-(2,6-dichlorophenyl)benzo[d]isothiazol-3(2H)-one), the “suppression of DENV replication” value is on record as “could suppress DENV replication”.

Regarding `COc1ccc(-n2sc3ccccc3c2=O)cc1` [Compound 5o, 2-(4-Methoxyphenyl)benzo[d]isothiazol-3(2H)-one], in data set [1], the concentration for half-maximal inhibition (IC50) was 26.5 ± 4.32 µM and the inhibition at 50 µM stood at 58%.

`O=c1c2ccccc2sn1-c1ccccc1O` [Compound 5l, 2-(2-Hydroxyphenyl)benzo[d]isothiazol-3(2H)-one]: the melting point is 198 to 200 °C. In data set [1], the IC50 was 6.66 ± 2.17 µM and the inhibition at 50 µM is no less than 90%.

`O=c1c2ccccc2sn1-c1ccccc1[N+](=O)[O-]` [Compound 5h, 2-(2-Nitrophenyl)benzo[d]isothiazol-3(2H)-one] gave a melting point of 199 to 200 °C. Besides, in data set [1], the IC50 amounted to 41.8 ± 1.17 µM and the inhibition at 50 µM was roughly 70%.

Compound `Cc1cc([N+](=O)[O-])ccc1-n1sc2ccccc2c1=O` [Compound 5j, 2-(2-Methyl-4-nitrophenyl)benzo[d]isothiazol-3(2H)-one] yielded a melting point of 135 to 138 °C. Also, in data set [1], the concentration for half-maximal inhibition (IC50) was 2.56 ± 1.03 µM and the inhibition at 50 µM was greater than 90%. Moreover, the “suppression of DENV replication” value in the data set with DENV2 [3] was “did not show any activity against DENV2”.

Values taken from paper PMC8070447, “Facile Synthesis and In Vitro Activity of N-Substituted 1,2-Benzisothiazol-3(2H)-ones against Dengue Virus NS2BNS3 Protease” (Pathogens, 2021).
